# Results published in ChEMBL document CHEMBL5233244, “Therapeutic potential of targeting α/β-Hydrolase domain-containing 6 (ABHD6)” (Eur J Med Chem, 2020).
# Tests used:
# [1] = target: T1, Fatty-acid amide hydrolase 1 (Mus musculus, UniProt O08914); assay: Inhibition of mouse FAAH expressed in COS-7 cells using [3H]AEA as substrate incubated for 30 mins by liquid scintillation analysis; assay type: cell-based
# T1 sequence (O08914 whole entry): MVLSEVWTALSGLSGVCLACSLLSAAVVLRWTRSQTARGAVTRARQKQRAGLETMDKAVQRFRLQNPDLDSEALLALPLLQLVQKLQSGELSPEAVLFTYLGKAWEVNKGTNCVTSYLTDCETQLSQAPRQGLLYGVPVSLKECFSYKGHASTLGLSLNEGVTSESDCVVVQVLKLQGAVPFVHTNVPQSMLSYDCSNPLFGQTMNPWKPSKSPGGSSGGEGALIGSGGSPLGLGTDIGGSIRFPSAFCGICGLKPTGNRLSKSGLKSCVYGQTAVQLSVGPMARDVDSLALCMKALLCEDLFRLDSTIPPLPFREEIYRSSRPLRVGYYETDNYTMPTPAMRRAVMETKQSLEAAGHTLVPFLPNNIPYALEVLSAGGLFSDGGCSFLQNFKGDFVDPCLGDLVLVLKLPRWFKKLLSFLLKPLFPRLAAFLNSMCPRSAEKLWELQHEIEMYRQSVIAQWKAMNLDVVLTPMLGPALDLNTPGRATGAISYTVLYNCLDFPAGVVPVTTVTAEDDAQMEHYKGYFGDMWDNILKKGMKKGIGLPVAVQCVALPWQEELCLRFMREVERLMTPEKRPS
# [2] = target: T2, Monoacylglycerol lipase ABHD6 (Mus musculus, UniProt Q8R2Y0); assay: Inhibition of mouse ABHD6 expressed in COS-7 cells using 2-[3H]AG as substrate incubated for 30 mins by liquid scintillation analysis; assay type: cell-based
# T2 sequence (Q8R2Y0 whole entry): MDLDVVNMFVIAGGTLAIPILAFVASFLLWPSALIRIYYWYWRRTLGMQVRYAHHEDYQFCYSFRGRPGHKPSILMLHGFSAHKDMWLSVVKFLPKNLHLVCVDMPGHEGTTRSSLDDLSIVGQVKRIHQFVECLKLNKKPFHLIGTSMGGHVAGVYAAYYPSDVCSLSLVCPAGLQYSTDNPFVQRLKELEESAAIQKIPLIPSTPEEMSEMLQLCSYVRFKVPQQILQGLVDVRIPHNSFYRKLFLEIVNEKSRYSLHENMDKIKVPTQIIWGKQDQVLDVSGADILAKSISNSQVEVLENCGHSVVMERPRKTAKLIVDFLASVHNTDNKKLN
# Monoglyceride lipase = target: T3, Monoglyceride lipase (Mus musculus, UniProt O35678); assay: Inhibition of mouse MAGL expressed in COS-7 cells using 2-[3H]AG as substrate incubated for 30 mins by liquid scintillation analysis; assay type: cell-based
# T3 sequence (O35678 whole entry): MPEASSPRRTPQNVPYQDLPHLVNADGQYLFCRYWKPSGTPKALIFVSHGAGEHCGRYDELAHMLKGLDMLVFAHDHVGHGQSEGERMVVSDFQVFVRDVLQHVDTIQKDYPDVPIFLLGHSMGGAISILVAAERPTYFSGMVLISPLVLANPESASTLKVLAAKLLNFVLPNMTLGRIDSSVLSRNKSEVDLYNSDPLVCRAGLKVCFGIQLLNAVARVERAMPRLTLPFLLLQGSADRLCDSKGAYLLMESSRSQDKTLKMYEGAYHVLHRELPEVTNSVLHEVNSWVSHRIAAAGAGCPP
# [3] = target: T4, Monoacylglycerol lipase ABHD6 (Homo sapiens, UniProt Q9BV23); assay: Inhibition of human recombinant ABHD6
# T4 sequence (Q9BV23 whole entry): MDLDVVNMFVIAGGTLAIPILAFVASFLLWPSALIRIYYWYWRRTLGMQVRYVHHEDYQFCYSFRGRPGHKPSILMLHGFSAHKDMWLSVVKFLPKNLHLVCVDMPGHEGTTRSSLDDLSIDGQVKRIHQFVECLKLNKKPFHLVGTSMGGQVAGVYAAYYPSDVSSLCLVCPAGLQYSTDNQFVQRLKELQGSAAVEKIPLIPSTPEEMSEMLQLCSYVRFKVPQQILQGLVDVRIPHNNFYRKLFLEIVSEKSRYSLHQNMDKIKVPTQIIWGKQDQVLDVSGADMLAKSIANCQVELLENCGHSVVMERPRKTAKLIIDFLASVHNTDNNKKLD
# [4] = target: T2, Monoacylglycerol lipase ABHD6; assay: Inhibition of ABHD6 in mouse brain membrane using HT-01 probe as substrate incubated for 30 mins by gel based competitive ABPP assay; assay type: cell membranes
# [5] = target: T5, Fatty-acid amide hydrolase 1 (Mus musculus) (UniProt O08914); assay: Inhibition of FAAH in mouse Primary neuron cells using [3H]AEA as substrate at 30 uM incubated for 30 mins by liquid scintillation analysis; assay type: cell-based
# T5 sequence (whole entry): T1 sequence (O08914 whole entry)
# [6] = target: T6, Monoacylglycerol lipase ABHD6 (Mus musculus) (UniProt Q8R2Y0); assay: Inhibition of ABHD6 in mouse Primary neuron cells using 2-[3H]AG as substrate at 30 uM incubated for 30 mins by liquid scintillation analysis; assay type: cell-based
# T6 sequence (whole entry): T2 sequence (Q8R2Y0 whole entry)
# [7] = target: T6, Monoacylglycerol lipase ABHD6 (Mus musculus); assay: Inhibition of ABHD6 in mouse brain membrane using FP-biotin as substrate at 10 uM incubated for 1 hr by LC-MS based ABPP-MudPIT analysis; assay type: cell membranes
# [8] = target: T4, Monoacylglycerol lipase ABHD6; assay: Inhibition of ABHD6 (unknown origin)
# [9] = target: T2, Monoacylglycerol lipase ABHD6; assay: Inhibition of ABHD6 in mouse brain membrane using FP-biotin as substrate incubated for 1 hr by LC-MS based ABPP-MudPIT analysis; assay type: cell membranes
structure (smiles),measurement,setting,value
CC/C=C\C/C=C\C/C=C\CCCCCCCC(=O)OCC1CO1 (stereo not given),IC50,[1],900 nM
same,IC50,[2],800 nM
same,IC50,Monoglyceride lipase,270 µM
CC(C)(C)OC(=O)N1CCN(C(=O)n2cc(-c3ccc(OC(F)(F)F)cc3)nn2)C(Cc2ccccc2)C1 (stereo not given),IC50,[3],3.6 nM
same,IC50,[4],79 nM
CCCCCC/C=C\CCCCCCCC(=O)OCC1CO1 (stereo not given),IC50,[1],4000 nM
same,inhibition,[5],60%
same,inhibition,[6],30%
same,IC50,[2],2400 nM
C#CCO[C@@H]1CC[C@H](Cc2ccccc2)N(C(=O)n2ncc(C(O)(c3ccc(F)cc3)c3ccc(F)cc3)n2)C1,IC50,[3],2.8 nM
same,IC50,[4],126 nM
CN(Cc1cccc(-c2ccncc2)c1)C(=O)Oc1ccc(-c2ccc(C(N)=O)cc2)cc1,inhibition,[7],90%
CC(C)(C)OC(=O)N1CCN(C(=O)n2cc(-c3ccc(OC(F)(F)F)cc3)nn2)C(c2ccccc2)C1 (stereo not given),IC50,[4],20 nM
COC(=O)[C@]1(C)CC[C@]2(C)CC[C@]3(C)C4=CC=C5C(=CC(=O)C(O)=C5C)[C@]4(C)CC[C@@]3(C)[C@@H]2C1 [PRISTIMERIN],IC50,[8],1300 nM
CN(Cc1cccc(-c2ccccc2)c1)C(=O)Oc1ccc(-c2ccc(C(N)=O)cc2)cc1,IC50,[9],430 nM
